From patent US20260285855A1, “HETEROARYL DERIVATIVES AS DDRS INHIBITORS” (CHIESI FARMACEUTICI S.P.A., priority 2023, published 2026)

Key:
DDR1 = target: T1, DDR1 (Homo sapiens, UniProt Q08345); experiment: LanthaScreen Europium Kinase Binding assay, DDR1; conditions: 5 nM DDR1, 20 nM Kinase Tracer 178, 1 h at rt; Ki from IC50 by Cheng-Prusoff; read-out: Ki DDR1
T1 construct: purchased Carna Biosciences
Experimental: (§1) DDR1 and DDR2 binding assays were performed using Life Technologies LanthaScreen™ Europium Kinase Binding assay. […] IC50 values were determined in GraphPad Prism 7.0 software, using 4 parameter model: log (inhibitor) vs. response. IC50 values were converted in Ki using the Cheng-Prusoff equation (Ki-IC50/(1+ [Tracer]/Kd).

DDR2 = target: T2, DDR2 (Homo sapiens, UniProt Q16832); experiment: LanthaScreen Europium Kinase Binding assay, DDR2; conditions: 5 nM DDR2, 10 nM Kinase Tracer 178, 1 h at rt; Ki from IC50 by Cheng-Prusoff; read-out: Ki DDR2
T2 construct: purchased Life Technologies
T2 sequence (Q16832 22-855): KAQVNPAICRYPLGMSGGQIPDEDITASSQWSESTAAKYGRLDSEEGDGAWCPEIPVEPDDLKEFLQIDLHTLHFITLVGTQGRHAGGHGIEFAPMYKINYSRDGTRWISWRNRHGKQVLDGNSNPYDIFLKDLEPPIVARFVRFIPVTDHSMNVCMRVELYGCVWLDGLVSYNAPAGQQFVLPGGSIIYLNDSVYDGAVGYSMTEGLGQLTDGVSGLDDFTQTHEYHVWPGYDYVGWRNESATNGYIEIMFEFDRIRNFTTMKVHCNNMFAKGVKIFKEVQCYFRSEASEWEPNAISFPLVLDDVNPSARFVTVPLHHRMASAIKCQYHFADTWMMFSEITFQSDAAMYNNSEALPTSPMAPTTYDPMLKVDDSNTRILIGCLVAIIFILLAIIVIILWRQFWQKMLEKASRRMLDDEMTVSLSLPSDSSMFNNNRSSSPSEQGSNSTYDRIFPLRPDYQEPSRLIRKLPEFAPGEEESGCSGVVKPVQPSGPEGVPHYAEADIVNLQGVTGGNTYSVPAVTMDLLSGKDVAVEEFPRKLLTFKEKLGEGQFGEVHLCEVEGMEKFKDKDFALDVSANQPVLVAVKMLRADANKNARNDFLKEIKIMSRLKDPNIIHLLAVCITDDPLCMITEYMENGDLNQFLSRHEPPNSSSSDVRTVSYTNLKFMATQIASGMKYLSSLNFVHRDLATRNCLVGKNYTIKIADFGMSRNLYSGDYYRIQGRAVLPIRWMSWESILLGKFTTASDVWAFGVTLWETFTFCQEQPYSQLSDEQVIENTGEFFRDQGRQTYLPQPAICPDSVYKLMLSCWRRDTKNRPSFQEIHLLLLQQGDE
Experimental: as §1

T1 sequence (Q08345 19-913): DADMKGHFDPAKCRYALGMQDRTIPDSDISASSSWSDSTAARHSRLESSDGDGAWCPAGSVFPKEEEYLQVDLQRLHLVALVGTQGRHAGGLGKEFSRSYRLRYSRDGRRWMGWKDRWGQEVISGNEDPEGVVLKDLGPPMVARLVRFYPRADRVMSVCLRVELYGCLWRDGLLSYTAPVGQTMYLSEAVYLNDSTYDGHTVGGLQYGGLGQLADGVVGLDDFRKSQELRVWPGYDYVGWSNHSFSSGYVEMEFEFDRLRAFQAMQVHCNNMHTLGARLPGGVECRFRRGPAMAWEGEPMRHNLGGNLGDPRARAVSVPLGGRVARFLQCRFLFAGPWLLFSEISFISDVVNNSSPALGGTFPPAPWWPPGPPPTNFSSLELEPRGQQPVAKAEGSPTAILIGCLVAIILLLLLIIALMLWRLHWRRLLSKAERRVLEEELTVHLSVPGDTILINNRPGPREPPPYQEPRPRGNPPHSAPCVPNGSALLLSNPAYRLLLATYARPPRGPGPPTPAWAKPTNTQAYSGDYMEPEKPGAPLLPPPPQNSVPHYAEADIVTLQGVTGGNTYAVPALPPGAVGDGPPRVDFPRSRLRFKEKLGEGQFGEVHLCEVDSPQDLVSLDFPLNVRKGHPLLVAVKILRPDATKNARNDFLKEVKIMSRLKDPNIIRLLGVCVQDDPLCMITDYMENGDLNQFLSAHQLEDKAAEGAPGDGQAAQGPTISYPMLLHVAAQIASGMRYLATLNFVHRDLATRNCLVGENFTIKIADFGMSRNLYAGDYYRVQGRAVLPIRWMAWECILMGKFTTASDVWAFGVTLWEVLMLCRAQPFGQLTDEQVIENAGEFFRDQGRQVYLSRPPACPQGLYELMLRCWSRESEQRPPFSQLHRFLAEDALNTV

Ki (DDR1) | Ki (DDR2) | SMILES
< 5 nM | 5 to 25 nM | Cn1ccn2ncc(C(=O)N3CC4(CC(NC(=O)Nc5cc(C(F)(F)F)ccc5OC5COC5)C4)C3)c12 [Example 126, 1-(2-(1-methyl-1H-imidazo[1,2-b]pyrazole-7-carbonyl)-2-azaspiro[3.3]heptan-6-yl)-3-(2-(oxetan-3-yloxy)-5-(trifluoromethyl)phenyl)urea]
< 5 nM | < 5 nM | Cn1ccn2ncc(C(=O)N3CC4(CC(NC(=O)Nc5cccc(C(F)(F)C(F)(F)F)c5)C4)C3)c12 [Example 127, 1-(2-(1-methyl-1H-imidazo[1,2-b]pyrazole-7-carbonyl)-2-azaspiro[3.3]heptan-6-yl)-3-(3-(perfluoroethyl)phenyl)urea]
< 5 nM | 5 to 25 nM | CN(C(=O)Nc1cccc(C(F)(F)F)c1)C1CC2(C1)CN(C(=O)c1ccnc3[nH]ncc13)C2 [Example 128, 1-(2-(1H-pyrazolo[3,4-b]pyridine-4-carbonyl)-2-azaspiro[3.3]heptan-6-yl)-1-methyl-3-(3-(trifluoromethyl)phenyl)urea]
< 5 nM | 5 to 25 nM | CN(C(=O)Nc1cc(C(F)(F)F)ccn1)C1CC2(C1)CN(C(=O)c1cnn3ccn(C)c13)C2 [Example 129, 1-methyl-1-(2-(1-methyl-1H-imidazo[1,2-b]pyrazole-7-carbonyl)-2-azaspiro[3.3]heptan-6-yl)-3-(4-(trifluoromethyl)pyridin-2-yl)urea]
< 5 nM | 5 to 25 nM | CN(C(=O)Nc1cncc(C(F)(F)F)c1)C1CC2(C1)CN(C(=O)c1ncnc3ccsc13)C2 [Example 130, 1-methyl-1-(2-(thieno[3,2-d]pyrimidine-4-carbonyl)-2-azaspiro[3.3]heptan-6-yl)-3-(5-(trifluoromethyl)pyridin-3-yl)urea]
< 5 nM | 5 to 25 nM | CN(C(=O)Nc1ccc(F)c(C(F)(F)F)c1)C1CC2(C1)CN(C(=O)c1cnn3ccn(C)c13)C2 [Example 131, 3-(4-fluoro-3-(trifluoromethyl)phenyl)-1-methyl-1-(2-(1-methyl-1H-imidazo[1,2-b]pyrazole-7-carbonyl)-2-azaspiro[3.3]heptan-6-yl)urea]
< 5 nM | 5 to 25 nM | CN(C(=O)Nc1cc(OC(F)(F)F)ccc1F)C1CC2(C1)CN(C(=O)c1cnn3ccn(C)c13)C2 [Example 132, 3-(2-fluoro-5-(trifluoromethoxy)phenyl)-1-methyl-1-(2-(1-methyl-1H-imidazo[1,2-b]pyrazole-7-carbonyl)-2-azaspiro[3.3]heptan-6-yl)urea]
< 5 nM | 5 to 25 nM | CN(C(=O)Nc1cccc(C(F)(F)F)c1)C1CC2(C1)CN(C(=O)c1cnn3ccsc13)C2 [Example 133, 1-methyl-1-(2-(pyrazolo[5,1-b]thiazole-7-carbonyl)-2-azaspiro[3.3]heptan-6-yl)-3-(3-(trifluoromethyl)phenyl)urea]
< 5 nM | 5 to 25 nM | CN(C(=O)Nc1cccc(C(F)(F)F)c1)C1CC2(C1)CN(C(=O)c1cnn3ccn(C)c13)C2 [Example 134, 1-methyl-1-(2-(1-methyl-1H-imidazo[1,2-b]pyrazole-7-carbonyl)-2-azaspiro[3.3]heptan-6-yl)-3-(3-(trifluoromethyl)phenyl)urea]
< 5 nM | 5 to 25 nM | O=C(Nc1cccc(C(F)(F)F)c1)NC1CC2(C1)CN(C(=O)c1cnn3c1SCC3)C2 [Example 135, 1-(2-(2,3-dihydropyrazolo[5,1-b]thiazole-7-carbonyl)-2-azaspiro[3.3]heptan-6-yl)-3-(3-(trifluoromethyl)phenyl)urea]
< 5 nM | 5 to 25 nM | O=C(Nc1cccc(C(F)(F)F)c1)NC1CC2(C1)CN(C(=O)c1cnn3c1SCCC3)C2 [Example 136, 1-(2-(6,7-dihydro-5H-pyrazolo[5,1-b][1,3]thiazine-3-carbonyl)-2-azaspiro[3.3]heptan-6-yl)-3-(3-(trifluoromethyl)phenyl)urea]
< 5 nM | < 5 nM | O=C(Nc1cccc(C(F)(F)F)c1)NC1CC2(C1)CN(C(=O)c1ccnc3ccsc13)C2 [Example 137, 1-(2-(thieno[3,2-b]pyridine-7-carbonyl)-2-azaspiro[3.3]heptan-6-yl)-3-(3-(trifluoromethyl)phenyl)urea]
< 5 nM | < 5 nM | O=C(Nc1cccc(C(F)(F)F)c1)NC1CC2(C1)CN(c1cnc3[nH]ncc3c1)C2 [Example 138, 1-(2-(1H-pyrazolo[3,4-b]pyridine-5-yl)-2-azaspiro[3.3]heptan-6-yl)-3-(3-(trifluoromethyl)phenyl)urea]
< 5 nM | < 5 nM | COc1ccc(OC(F)(F)F)cc1NC(=O)CC1CC2(C1)CN(C(=O)c1ccnc3ccsc13)C2 [Example 139, N-(2-methoxy-5-(trifluoromethoxy)phenyl)-2-(2-(thieno[3,2-b]pyridine-7-carbonyl)-2-azaspiro[3.3]heptan-6-yl)acetamide]
< 5 nM | < 5 nM | O=C(CC1CC2(C1)CN(C(=O)c1ccnc3ccsc13)C2)Nc1cccc(C(F)(F)F)c1 [Example 140, 2-(2-(thieno[3,2-b]pyridine-7-carbonyl)-2-azaspiro[3.3]heptan-6-yl)-N-(3-(trifluoromethyl)phenyl)acetamide]
< 5 nM | < 5 nM | Cn1ccn2ncc(C(=O)N3CC4(CC(CC(=O)Nc5cccc(C(F)(F)F)c5)C4)C3)c12 [Example 141, 2-(2-(1-methyl-1H-imidazo[1,2-b]pyrazole-7-carbonyl)-2-azaspiro[3.3]heptan-6-yl)-N-(3-(trifluoromethyl)phenyl)acetamide]
< 5 nM | < 5 nM | COc1ccc(OC(F)(F)F)cc1NC(=O)CC1CC2(C1)CN(C(=O)c1cnn3ccn(C)c13)C2 [Example 142, N-(2-methoxy-5-(trifluoromethoxy)phenyl)-2-(2-(1-methyl-1H-imidazo[1,2-b]pyrazole-7-carbonyl)-2-azaspiro[3.3]heptan-6-yl)acetamide]
< 5 nM | < 5 nM | Cn1ccn2ncc(C(=O)N3CC4(CC(OC(=O)Nc5cccc(C(F)(F)F)c5)C4)C3)c12 [Example 143, 2-(1-methyl-1H-imidazo[1,2-b]pyrazole-7-carbonyl)-2-azaspiro[3.3]heptan-6-yl(3-(trifluoromethyl)phenyl)carbamate]
< 5 nM | 5 to 25 nM | COc1ccc(OC(F)(F)F)cc1NC(=O)OC1CC2(C1)CN(C(=O)c1cnn3ccn(C)c13)C2 [Example 144, 2-(1-methyl-1H-imidazo[1,2-b]pyrazole-7-carbonyl)-2-azaspiro[3.3]heptan-6-yl(2-methoxy-5-(trifluoromethoxy)phenyl)carba-mate]
< 5 nM | 5 to 25 nM | O=C(Nc1cc(C(F)(F)F)ccn1)NC1CC2(C1)CN(C(=O)c1ccnc3[nH]ncc13)C2 [Example 145, 1-(2-(1H-pyrazolo[3,4-b]pyridine-4-carbonyl)-2-azaspiro[3.3]heptan-6-yl)-3-(4-(trifluoromethyl)pyridin-2-yl)urea]
< 5 nM | 5 to 25 nM | Cn1ccn2ncc(C(=O)N3CC4(CC(OC(=O)Nc5cncc(C(F)(F)F)c5)C4)C3)c12 [Example 146, 2-(1-methyl-1H-imidazo[1,2-b]pyrazole-7-carbonyl)-2-azaspiro[3.3]heptan-6-yl(5-(trifluoromethyl)pyridin-3-yl)carbamate]
